This note sets out measurements from patent US7541342B2, “Use of PKC-activating compounds as cardioprotectants and as apoptosis-inducing anti-tumor agents” (University of Tennessee Research Foundation, priority 2005, dated 2009).

What is called cell viability is a per cent measure of how many cells are alive, often set against a control. A higher cell viability goes with less harm to the cells.

The subject of data set [1] is 32D.3 cells. Description: Cell viability determination by trypan blue staining. The conditions noted are these: for time to 50% cell kill: after 5 μM AD 198 treatment.
Data set [2] concerns hearts of wild type and PKC-ε KO mice. Nature of the data set: Langendorff perfused heart, wild type and PKC-ε knockout mice. Conditions: 0.1 μM. Also noted: species or system mouse. Here is the method:
Perfusion studies were performed as described previously. See Pyle et al., Am. J. Physiol. Heart Circ. Physiol., 279, H1941-1948 (2000). Briefly, hearts were removed from methoxyflurane-anesthetized adult female Wistar rats, female C57 mice or progeny of C57B1/6J×129SvJae F1 heterozygous mice (provided by Dr. Robert O. Messing, University of California, San Francisco, Calif., United States of America; see also Jin, Z. Q. et al., Am. J. Physiol. Heart, Circ. Physiol., 282, H1970-1977 (2002)) bred to produce homozygous PKC-ε^−/−. Isolated hearts were cannulated in ice-cold modified Krebs-Henseleit buffer (4.7 mM KCl, 118 mM NaCl, 1.2 mM MgSO4, 1.3 mM CaCl2, 25 mM NaHCO3, 11 mM glucose, 1.2 mM KH2PO4, 0.05 mM EDTA, 2 mM lactic acid, pH 7.4) and then mounted on a Langendorff perfusion apparatus.
While mounted, hearts were placed in a 100 mL bath of oxygenated (95% O2/5% CO2), 37° C. modified Krebs-Henseleit buffer and perfused with the same at a pressure equal to 100 cm H2O. […] Pre-ischemic LVDP was calculated as the pressure difference between peak systolic pressure and EDP.
Baseline perfusion or drug perfusion in Modified Krebs-Henseleit buffer was carried out for 20 min followed by a 2-5 min washout of the perfused heart with Modified Krebs-Henseleit buffer plus vehicle. […] Post-ischemic LVDP was determined by averaging the last 10 min of post-ischemic reperfusion. […]

The subject of data set [3] is Raf-1/Mek/MAPK(erk1,2) pathway. Nature of the data set: MAP kinase phosphorylation immunoblot in K562 cells. The conditions noted are these: 3 μM AD 198. A general note: A western blot detects proteins with antibodies after separation by electrophoresis.
Data set [4] relates to neonatal rat ventricular myocytes (NRVM). Nature of the data set: ATP content (luciferin/luciferase) in anti-erbB-2 antibody treated NRVM. The conditions noted are these: 200 nM drug 1 hr prior to anti-erbB-2 antibody.
The next data set deals with cardiomyocytes. Description: Monitoring of ROS generation (CM-H2DCFDA oxidation). In kind it is cell-based, rat. Conditions: 2.0 μM DOX, 2.0 μM AD 198 or 3.0 μM H2O2 for 2 hr. The text has this:
Primary murine cardiocyocytes from female C57 mice (Harlan, Indianapolis, Ind., United States of America) isolated as described by Lester, J. W., et al. (Am. J. Physiol. Heart Circ. Physiol., 271, H1778-J1785 (1996)), were preloaded with 5-(and-6)-chloromethyl-2′,7′-dichlorodihydrofluorescein diacetate, acetyl ester (CM-H2DCFDA; Molecular Probes, Eugene, Oreg., United States of America) in PBS for 1 hr, followed by removal of PBS and replacement with warm RPMI-1640 medium with 10% FBS. […] Cellular fluorescence was quantified by flow cytometry at an […] wavelength of 525 nm.

Data set [5] relates to cytochrome c release in 32D.3 cells. Description: Immunoblot analysis of cytochrome c release from mitochondria. In kind it is cell-based, murine.
The subject of data set [6] is 32D.3 cells. Nature of the data set: Mitochondrial membrane depolarization ([…] staining). In kind it is cell-based, murine. The conditions noted are these: 5 μM for 3 hr.

Consider `CCCCC(=O)OCC(=O)[C@]1(O)Cc2c(O)c3c(c(O)c2[C@@H](O[C@H]2C[C@H](NCc4ccccc4)[C@H](O)[C@H](C)O2)C1)C(=O)c1c(OC)cccc1C3=O` [AD 198, N-benzyladriamycin-14-valerate], for which, in the data set with 32D.3 cells [1] (5 μM AD 198), the “effect of Ca2+ chelation (BAPTA-AM/EGTA) on rate of cell kill” value is listed as “unaffected”. Further, the cell viability result in the data set on 32D.3 cells [1] (5 μM AD 198 with 10 μM rottlerin, 12 hr after drug exposure) is “approximately 80%”; with 32D.3 cells [1] (5 μM AD 198 with 10 μM rottlerin, 24 hr after drug exposure), 50%; in the data set on 32D.3 cells [1] (5 μM AD 198 without rottlerin, 24 hr after drug exposure), 8%. The “time to 50% cell kill” value in the data set with 32D.3 cells [1] (cells with trans-dominant negative PKC-δ (reduced PKC activity)) came to 18 h; in the data set on 32D.3 cells [1] (control cells (non-recombinant vector)) it was 8 h. Moreover, the IC90 with 32D.3 cells [1] (read-out: IC90 concentration (drug concentration required to kill 90% of 32D.3 cells), 72 hr after 1 hr drug treatment) was 5 µM. For the same molecule, the “initial cell population remaining viable” value with 32D.3 cells [1] (within 12 hr after 1 hr exposure to 5 μM AD 198) is “less than 20%”. Besides, the “protection versus control (DMSO)” value in data set [2] is “not afforded significant protection”. The “phosphorylation of MAPK (phospho-MAPK)” value in data set [3] is “induces the phosphorylation and activation”. Besides, the “ATP depletion by anti-erbB-2 antibody after drug pretreatment” value in data set [4] turned out to be 39%. In the data set on cardiomyocytes, the “increase in CM-H2DCFDA fluorescence” value turned out to be 44 fold. The “effect of BAPTA/EGTA treatment on drug-induced cytochrome c release” value in data set [5] (5 μM AD 198, 5 μM AD 445, 10 μM A23187) is given as “failed to block”. The “drug exposure after which cytochrome c release is detectable” value in data set [5] (5 μM AD 198, cytosolic fractions) was 2 h. Moreover, in the data set with 32D.3 cells [6], the “cells with diminished punctate fluorescence and cell shrinkage” value was “approximately 75%”.
